Reference: the OligoGym collection
Strand notation (5' to 3'): a small letter for the sugar, then the base; units joined by * are phosphorothioate-linked, units joined directly phosphodiester-linked; [ ] holds rarer units or linkages, { } end groups; capitals alone tell only the bases. HELM strings list units from the 5' end as sugar, base in round brackets, then linkage (d deoxyribose, r ribose, m 2'-O-methyl, p phosphodiester). [sp] = phosphorothioate linkage; d = 2'-deoxy (DNA); m = 2'-O-methyl

Legend:
[1] = molecular target: CTNNB1; test: HEK293-TLR7, 100 nM ASO, then resiquimod
[2] = molecular target: CTNNB1; test: HEK293-TLR8, 100 nM ASO, then resiquimod
[3] = molecular target: LINC-PINT; test: HEK293-TLR7, 100 nM ASO, then resiquimod
[4] = molecular target: LINC-PINT; test: HEK293-TLR8, 100 nM ASO, then resiquimod

| Substance | TLR7 signal (NF-kB luciferase) (% of resiquimod alone) [1] | TLR8 potentiation (NF-kB luciferase) (fold of resiquimod alone) [2] | TLR7 signal (NF-kB luciferase) (% of resiquimod alone) [3] | TLR8 potentiation (NF-kB luciferase) (fold of resiquimod alone) [4] |
| --- | --- | --- | --- | --- |
| RNA1{m(A)[sp].m(C)[sp].m(C)[sp].m(A)[sp].m(C)[sp].d(C)[sp].d(C)[sp].d(A)[sp].d(C)[sp].d(T)[sp].d(T)[sp].d(G)[sp].d(G)[sp].d(C)[sp].d(A)[sp].m(G)[sp].m(A)[sp].m(C)[sp].m(C)[sp].m(A)}$$$$ | 63.4 | 1.71 | – | – |
| RNA1{m(A)[sp].m(C)[sp].m(C)[sp].m(C)[sp].m(A)[sp].d(A)[sp].d(G)[sp].d(G)[sp].d(C)[sp].d(A)[sp].d(T)[sp].d(C)[sp].d(C)[sp].d(T)[sp].d(G)[sp].m(G)[sp].m(C)[sp].m(C)[sp].m(A)[sp].m(U)}$$$$ | 70.7 | 2.29 | – | – |
| RNA1{m(A)[sp].m(C)[sp].m(C)[sp].m(C)[sp].m(A)[sp].d(C)[sp].d(T)[sp].d(T)[sp].d(G)[sp].d(G)[sp].d(C)[sp].d(A)[sp].d(G)[sp].d(A)[sp].d(C)[sp].m(C)[sp].m(A)[sp].m(U)[sp].m(C)[sp].m(A)}$$$$ | 65.8 | 2.74 | – | – |
| RNA1{m(A)[sp].m(C)[sp].m(U)[sp].m(G)[sp].m(C)[sp].d(A)[sp].d(T)[sp].d(T)[sp].d(C)[sp].d(T)[sp].d(G)[sp].d(G)[sp].d(G)[sp].d(C)[sp].d(C)[sp].m(A)[sp].m(U)[sp].m(C)[sp].m(U)[sp].m(C)}$$$$ | 73.2 | 2.96 | – | – |
| RNA1{m(A)[sp].m(C)[sp].m(U)[sp].m(G)[sp].m(U)[sp].d(G)[sp].d(T)[sp].d(A)[sp].d(G)[sp].d(A)[sp].d(T)[sp].d(G)[sp].d(G)[sp].d(G)[sp].d(A)[sp].m(U)[sp].m(C)[sp].m(U)[sp].m(G)[sp].m(C)}$$$$ | 99.8 | 3.43 | – | – |
| mA*mC*mC*mC*mU*dT*dC*dT*dC*dT*dC*dT*dG*dG*dT*mC*mC*mC*mA*mU | – | – | 43.4 | 2.55 |
| mA*mG*mC*mC*mG*dA*dA*dC*dA*dG*dA*dA*dG*dG*dA*mG*mC*mG*mU*mC | – | – | 27.7 | 2.54 |
| mA*mG*mU*mU*mU*dA*dT*dA*dG*dA*dT*dT*dT*dC*dA*mA*mG*mU*mA*mG | – | – | 37.6 | 3.06 |
| mA*mU*mG*mA*mC*dA*dT*dT*dT*dC*dG*dT*dG*dG*dC*mU*mC*mC*mU*mA | – | – | 32.5 | 0.88 |
| mC*mA*mA*mG*mC*dC*dC*dC*dA*dG*dC*dG*dT*dT*dC*mC*mU*mC*mC*mG | – | – | 45.2 | 2.74 |
| mC*mA*mC*mC*mC*dT*dT*dC*dT*dC*dT*dC*dT*dG*dG*mU*mC*mC*mC*mA | – | – | 73.3 | 1.85 |
| mC*mA*mC*mU*mG*dT*dA*dT*dT*dT*dT*dA*dT*dT*dA*mC*mA*mG*mA*mA | – | – | 58.1 | 2.67 |
| mC*mA*mU*mC*mC*dC*dT*dT*dC*dT*dG*dC*dT*dG*dC*mC*mA*mA*mG*mC | – | – | 54.3 | 2.95 |
| mC*mC*mA*mU*mC*dC*dC*dT*dT*dC*dT*dG*dC*dT*dG*mC*mC*mA*mA*mG | – | – | 52.6 | 2.38 |
| mC*mC*mC*mU*mA*dA*dT*dG*dC*dT*dT*dT*dC*dC*dT*mC*mU*mC*mC*mA | – | – | 58.4 | 2.7 |
| mC*mC*mC*mU*mU*dC*dT*dC*dT*dC*dT*dG*dG*dT*dC*mC*mC*mA*mU*mC | – | – | 49.6 | 2.6 |
| mC*mC*mU*mA*mU*dT*dA*dA*dA*dA*dA*dA*dA*dT*dT*mU*mA*mU*mA*mC | – | – | 109 | 2.19 |
| mC*mC*mU*mU*mC*dT*dC*dT*dC*dT*dG*dG*dT*dC*dC*mC*mA*mU*mC*mC | – | – | 60.9 | 3.01 |
| mC*mC*mU*mU*mC*dT*dG*dC*dT*dG*dC*dC*dA*dA*dG*mC*mC*mC*mC*mA | – | – | 85.6 | 1.45 |
| mC*mU*mC*mU*mC*dT*dG*dG*dT*dC*dC*dC*dA*dT*dC*mC*mC*mU*mU*mC | – | – | 85 | 2.73 |
| mC*mU*mU*mC*mU*dC*dT*dC*dT*dG*dG*dT*dC*dC*dC*mA*mU*mC*mC*mC | – | – | 56.2 | 2.92 |
| mC*mU*mU*mU*mA*dT*dA*dT*dT*dA*dC*dA*dA*dA*dG*mC*mU*mA*mC*mU | – | – | 54.8 | 2.11 |
| mG*mA*mU*mG*mG*dT*dT*dC*dC*dA*dG*dT*dC*dC*dC*mU*mC*mU*mU*mC | – | – | 22.3 | 0.84 |
| mG*mC*mA*mA*mG*dG*dC*dA*dG*dA*dG*dA*dA*dA*dC*mU*mC*mC*mA*mG | – | – | 20 | 1.45 |
| mG*mC*mG*mU*mA*dG*dT*dT*dT*dC*dT*dC*dT*dT*dC*mC*mU*mC*mC*mC | – | – | 27.2 | 1.86 |

| Substance | TLR7 signal (NF-kB luciferase) (% of resiquimod alone) [1] | TLR8 potentiation (NF-kB luciferase) (fold of resiquimod alone) [2] | TLR7 signal (NF-kB luciferase) (% of resiquimod alone) [3] | TLR8 potentiation (NF-kB luciferase) (fold of resiquimod alone) [4] |
| --- | --- | --- | --- | --- |
| mG*mG*mG*mU*mC*dT*dC*dC*dT*dC*dC*dA*dC*dA*dC*mC*mC*mU*mU*mC | – | – | 21.5 | 0.87 |
| mG*mG*mU*mC*mC*dC*dA*dT*dC*dC*dC*dT*dT*dC*dT*mG*mC*mU*mG*mC | – | – | 20.8 | 1.28 |
| mG*mG*mU*mC*mU*dC*dC*dT*dC*dC*dA*dC*dA*dC*dC*mC*mU*mU*mC*mU | – | – | 23.7 | 1.29 |
| mG*mU*mC*mC*mC*dA*dT*dC*dC*dC*dT*dT*dC*dT*dG*mC*mU*mG*mC*mC | – | – | 22.5 | 1.37 |
| mG*mU*mC*mC*mG*dT*dA*dC*dC*dT*dC*dC*dA*dC*dC*mC*mA*mC*mC*mG | – | – | 22.8 | 1.7 |
| mG*mU*mC*mU*mC*dC*dT*dC*dC*dA*dC*dA*dC*dC*dC*mU*mU*mC*mU*mC | – | – | 25 | 1.98 |
| mG*mU*mU*mC*mA*dG*dT*dC*dA*dG*dA*dT*dC*dG*dC*mU*mG*mG*mG*mA | – | – | 17.5 | 1.55 |
| mU*mA*mU*mU*mC*dA*dT*dA*dT*dT*dT*dT*dT*dA*dT*mU*mU*mC*mA*mG | – | – | 87.1 | 4.47 |
| mU*mC*mC*mC*mA*dA*dC*dT*dC*dT*dT*dC*dT*dA*dA*mC*mU*mC*mG*mU | – | – | 40.8 | 3.7 |
| mU*mC*mC*mC*mA*dT*dC*dC*dC*dT*dT*dC*dT*dG*dC*mU*mG*mC*mC*mA | – | – | 43.1 | 3.95 |
| mU*mC*mU*mC*mU*dC*dT*dG*dG*dT*dC*dC*dC*dA*dT*mC*mC*mC*mU*mU | – | – | 43.8 | 3.68 |
| mU*mC*mU*mC*mU*dG*dG*dT*dC*dC*dC*dA*dT*dC*dC*mC*mU*mU*mC*mU | – | – | 78.2 | 5.44 |
| mU*mC*mU*mG*mG*dT*dC*dC*dC*dA*dT*dC*dC*dC*dT*mU*mC*mU*mG*mC | – | – | 29.4 | 3.36 |
| mU*mG*mA*mC*mA*dA*dA*dA*dC*dA*dA*dT*dA*dA*dT*mA*mA*mC*mA*mG | – | – | 36.7 | 1.31 |
| mU*mG*mA*mC*mA*dT*dT*dT*dC*dG*dT*dG*dG*dC*dT*mC*mC*mU*mA*mC | – | – | 33.6 | 1.73 |
| mU*mG*mA*mU*mG*dA*dT*dG*dC*dT*dT*dG*dC*dA*dG*mG*mA*mG*mG*mC | – | – | 25.5 | 1.18 |
| mU*mG*mC*mU*mA*dT*dT*dC*dA*dT*dA*dT*dT*dT*dT*mU*mA*mU*mU*mU | – | – | 42.4 | 3.01 |
| mU*mG*mG*mC*mG*dT*dA*dG*dT*dT*dT*dC*dT*dC*dT*mU*mC*mC*mU*mC | – | – | 32.8 | 2.48 |
| mU*mG*mU*mU*mU*dC*dC*dC*dC*dG*dG*dA*dG*dA*dG*mC*mA*mA*mU*mG | – | – | 30.9 | 1.62 |
| mU*mU*mA*mG*mC*dT*dC*dC*dT*dT*dG*dC*dC*dT*dC*mG*mU*mU*mC*mC | – | – | 31.7 | 3.43 |
| mU*mU*mC*mU*mC*dT*dC*dT*dG*dG*dT*dC*dC*dC*dA*mU*mC*mC*mC*mU | – | – | 26.2 | 2.83 |
| mU*mU*mG*mG*mC*dC*dT*dG*dT*dG*dG*dA*dT*dG*dC*mU*mU*mU*mG*mU | – | – | 21.4 | 0.75 |
| mU*mU*mU*mA*mU*dA*dT*dT*dA*dC*dA*dA*dA*dG*dC*mU*mA*mC*mU*mU | – | – | 33.7 | 2.71 |
| mU*mU*mU*mG*mA*dA*dA*dT*dT*dC*dA*dG*dA*dA*dG*mA*mU*mU*mU*mG | – | – | 35.1 | 2.57 |
